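Growth conditions: 96-well plates. Treatment: test compound, 48 hours, 5 concentrations. Analysis: linear interpolation between bracketing concentrations; unreached endpoints set to highest concentration. GI50: concentration for 50% inhibition of growth. At the TGI there is no net growth.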
How the values were obtained:
Assay in all cases: DTP human tumour cell line panel, 48 h
OVCAR-5 ovarian = tested on: OVCAR-5 ovarian
SK-MEL-2 melanoma = tested on: SK-MEL-2 melanoma
U251 CNS = tested on: U251 CNS
HL-60(TB) leukemia = tested on: HL-60(TB) leukemia
MCF7 breast = tested on: MCF7 breast
NCI-H522 lung = tested on: NCI-H522 lung
BT-549 breast = tested on: BT-549 breast
SK-MEL-28 melanoma = tested on: SK-MEL-28 melanoma
HT29 colon = tested on: HT29 colon
NCI/ADR-RES ovarian = tested on: NCI/ADR-RES ovarian
SNB-75 CNS = tested on: SNB-75 CNS
SNB-19 CNS = tested on: SNB-19 CNS
SF-268 CNS = tested on: SF-268 CNS
K-562 leukemia = tested on: K-562 leukemia
SN12C renal = tested on: SN12C renal
MDA-MB-231 breast = tested on: MDA-MB-231 breast
UO-31 renal = tested on: UO-31 renal
HS 578T breast = tested on: HS 578T breast
NCI-H23 lung = tested on: NCI-H23 lung
RPMI-8226 leukemia = tested on: RPMI-8226 leukemia
LOX IMVI melanoma = tested on: LOX IMVI melanoma
OVCAR-4 ovarian = tested on: OVCAR-4 ovarian
HCT-15 colon = tested on: HCT-15 colon
NCI-H226 lung = tested on: NCI-H226 lung
SW-620 colon = tested on: SW-620 colon
SF-295 CNS = tested on: SF-295 CNS
SF-539 CNS = tested on: SF-539 CNS
A498 renal = tested on: A498 renal
COLO 205 colon = tested on: COLO 205 colon
M14 melanoma = tested on: M14 melanoma
OVCAR-8 ovarian = tested on: OVCAR-8 ovarian
PC-3 prostate = tested on: PC-3 prostate
SR leukemia = tested on: SR leukemia
ACHN renal = tested on: ACHN renal
NCI-H460 lung = tested on: NCI-H460 lung
SK-MEL-5 melanoma = tested on: SK-MEL-5 melanoma
DU-145 prostate = tested on: DU-145 prostate
HCT-116 colon = tested on: HCT-116 colon
TK-10 renal = tested on: TK-10 renal
MOLT-4 leukemia = tested on: MOLT-4 leukemia
RXF 393 renal = tested on: RXF 393 renal
OVCAR-3 ovarian = tested on: OVCAR-3 ovarian
KM12 colon = tested on: KM12 colon
UACC-62 melanoma = tested on: UACC-62 melanoma
MALME-3M melanoma = tested on: MALME-3M melanoma
UACC-257 melanoma = tested on: UACC-257 melanoma
A549 NSCLC = tested on: A549 NSCLC
MDA-MB-435 = tested on: MDA-MB-435
786-0 renal = tested on: 786-0 renal
SK-OV-3 ovarian = tested on: SK-OV-3 ovarian
HCC-2998 colon = tested on: HCC-2998 colon
CAKI-1 renal = tested on: CAKI-1 renal
T-47D breast = tested on: T-47D breast
HOP-62 NSCLC = tested on: HOP-62 NSCLC
CCRF-CEM leukemia = tested on: CCRF-CEM leukemia
IGROV1 ovarian = tested on: IGROV1 ovarian
EKVX NSCLC = tested on: EKVX NSCLC
HOP-92 NSCLC = tested on: HOP-92 NSCLC

## Cn1cc(C2=C(c3cn(CCN)c4ccccc34)C(=O)NC2=O)c2ccccc21
OVCAR-5 ovarian
  GI50: 10.8 µM
  TGI: > 25 µM
SK-MEL-2 melanoma
  GI50: 5.12 µM
  TGI: 12.1 µM
U251 CNS
  GI50: 5.61 µM
  TGI: > 20.5 µM
HL-60(TB) leukemia
  GI50: 6.55 µM
  TGI: 14.9 µM
MCF7 breast
  GI50: 3.72 µM
  TGI: > 23.4 µM
NCI-H522 lung
  GI50: 6.01 µM
  TGI: 17.2 µM
BT-549 breast
  GI50: 7.82 µM
  TGI: > 23.8 µM
SK-MEL-28 melanoma
  GI50: 7.68 µM
  TGI: > 25 µM
HT29 colon
  GI50: 4.2 µM
  TGI: 15.7 µM
NCI/ADR-RES ovarian
  GI50: 10.7 µM
  TGI: > 25 µM
SNB-75 CNS
  GI50: 0.587 µM
  TGI: 6.72 µM
SNB-19 CNS
  GI50: 8.13 µM
  TGI: > 25 µM
SF-268 CNS
  GI50: 7.41 µM
  TGI: 20.4 µM
K-562 leukemia
  GI50: 8.4 µM
  TGI: > 25 µM
SN12C renal
  GI50: 5.87 µM
  TGI: > 25 µM
MDA-MB-231 breast
  GI50: 6 µM
  TGI: 19.2 µM
UO-31 renal
  GI50: 3.7 µM
  TGI: 20.6 µM
HS 578T breast
  GI50: 4.32 µM
  TGI: 20.2 µM
NCI-H23 lung
  GI50: 5.15 µM
  TGI: 15.1 µM
RPMI-8226 leukemia
  GI50: 6.29 µM
  TGI: 15.5 µM
LOX IMVI melanoma
  GI50: 6.05 µM
  TGI: > 22.8 µM
OVCAR-4 ovarian
  GI50: 5.66 µM
  TGI: > 21.2 µM
HCT-15 colon
  GI50: 6.79 µM
  TGI: > 25 µM
NCI-H226 lung
  GI50: 4.44 µM
  TGI: 18.1 µM
SW-620 colon
  GI50: 6.25 µM
  TGI: > 20.1 µM
SF-295 CNS
  GI50: 5.54 µM
  TGI: 16.7 µM
SF-539 CNS
  GI50: 4.83 µM
  TGI: 13.9 µM
A498 renal
  GI50: 7.79 µM
  TGI: 17.6 µM
COLO 205 colon
  GI50: 2.7 µM
  TGI: 7.15 µM
M14 melanoma
  GI50: 6.15 µM
  TGI: 19.5 µM
OVCAR-8 ovarian
  GI50: 6.3 µM
  TGI: > 22.3 µM
PC-3 prostate
  GI50: 5.14 µM
  TGI: > 19.7 µM
SR leukemia
  GI50: 4.8 µM
  TGI: 17 µM
ACHN renal
  GI50: 5.47 µM
  TGI: > 25 µM
NCI-H460 lung
  GI50: 7.54 µM
  TGI: > 25 µM
SK-MEL-5 melanoma
  GI50: 4.59 µM
  TGI: 13 µM
DU-145 prostate
  GI50: 8.63 µM
  TGI: > 25 µM
HCT-116 colon
  GI50: 5.57 µM
  TGI: > 25 µM
TK-10 renal
  GI50: 6.3 µM
  TGI: 18.8 µM
MOLT-4 leukemia
  GI50: 6.48 µM
  TGI: 19.9 µM
RXF 393 renal
  GI50: 3.74 µM
  TGI: 10.1 µM
OVCAR-3 ovarian
  GI50: 7.47 µM
  TGI: > 23.9 µM
KM12 colon
  GI50: 6.69 µM
  TGI: > 20.6 µM
UACC-62 melanoma
  GI50: 5.9 µM
  TGI: 17.2 µM
MALME-3M melanoma
  GI50: 5.99 µM
  TGI: 13.5 µM
UACC-257 melanoma
  GI50: 6.17 µM
  TGI: 15.2 µM
A549 NSCLC
  GI50: 6.75 µM
  TGI: > 25 µM
MDA-MB-435
  GI50: 3.81 µM
  TGI: 19.4 µM
786-0 renal
  GI50: 8.98 µM
  TGI: > 25 µM
SK-OV-3 ovarian
  GI50: 6.17 µM
  TGI: 24.4 µM
HCC-2998 colon
  GI50: 7.22 µM
  TGI: 20.9 µM
CAKI-1 renal
  GI50: 4.18 µM
  TGI: 24.5 µM
T-47D breast
  GI50: 5.32 µM
  TGI: 14.7 µM
HOP-62 NSCLC
  GI50: 6.07 µM
  TGI: > 19.7 µM
CCRF-CEM leukemia
  GI50: 6.05 µM
  TGI: > 22.7 µM
IGROV1 ovarian
  GI50: 9.3 µM
  TGI: > 21 µM

## COc1ccccc1CNCCCN1C(=O)c2ccc3c4c(ccc(c24)C1=O)C(=O)N(CCCNCCCN)C3=O
OVCAR-5 ovarian
  GI50: 1.41 µM
  TGI: 7.36 µM
SK-MEL-2 melanoma
  GI50: 0.907 µM
  TGI: 3.03 µM
U251 CNS
  GI50: 0.106 µM
  TGI: 1.62 µM
HL-60(TB) leukemia
  GI50: 0.744 µM
  TGI: 2.78 µM
MCF7 breast
  GI50: 0.123 µM
  TGI: 2.43 µM
NCI-H522 lung
  GI50: 0.471 µM
  TGI: 2.31 µM
BT-549 breast
  GI50: 1.44 µM
  TGI: 3.81 µM
SK-MEL-28 melanoma
  GI50: 0.74 µM
  TGI: 2.7 µM
HT29 colon
  GI50: 0.159 µM
  TGI: 1.54 µM
NCI/ADR-RES ovarian
  GI50: 1.16 µM
  TGI: 5.71 µM
SNB-75 CNS
  GI50: 1.29 µM
  TGI: 3.29 µM
SNB-19 CNS
  GI50: 0.605 µM
  TGI: 4.05 µM
SF-268 CNS
  GI50: 0.41 µM
  TGI: 6.37 µM
K-562 leukemia
  GI50: 0.216 µM
  TGI: 3.76 µM
MDA-MB-231 breast
  GI50: 1.41 µM
  TGI: 9.72 µM
UO-31 renal
  GI50: 0.744 µM
  TGI: 3.08 µM
HS 578T breast
  GI50: 1.2 µM
  TGI: 5.82 µM
NCI-H23 lung
  GI50: 0.31 µM
  TGI: 2.55 µM
RPMI-8226 leukemia
  GI50: 0.581 µM
  TGI: 4.88 µM
LOX IMVI melanoma
  GI50: 0.232 µM
  TGI: 1.92 µM
OVCAR-4 ovarian
  GI50: 0.847 µM
  TGI: 2.67 µM
EKVX NSCLC
  GI50: 1.02 µM
  TGI: 2.99 µM
HCT-15 colon
  GI50: 0.886 µM
  TGI: 3.76 µM
NCI-H226 lung
  GI50: 0.746 µM
  TGI: 3.2 µM
SW-620 colon
  GI50: 0.105 µM
  TGI: 1.79 µM
SF-295 CNS
  GI50: 0.45 µM
  TGI: 4.61 µM
SF-539 CNS
  GI50: 0.968 µM
  TGI: 2.82 µM
A498 renal
  GI50: 0.342 µM
  TGI: 2.15 µM
COLO 205 colon
  GI50: 0.456 µM
  TGI: 1.85 µM
M14 melanoma
  GI50: 0.972 µM
  TGI: 2.71 µM
OVCAR-8 ovarian
  GI50: 0.0735 µM
  TGI: 2.83 µM
PC-3 prostate
  GI50: 0.653 µM
  TGI: 4.61 µM
SR leukemia
  GI50: 0.0273 µM
  TGI: 9.2 µM
ACHN renal
  GI50: 0.526 µM
  TGI: 10.3 µM
NCI-H460 lung
  GI50: 0.146 µM
  TGI: 1.41 µM
SK-MEL-5 melanoma
  GI50: 0.482 µM
  TGI: 1.82 µM
DU-145 prostate
  GI50: 0.63 µM
  TGI: 2.39 µM
HCT-116 colon
  GI50: 0.136 µM
  TGI: 3.04 µM
TK-10 renal
  GI50: 1.57 µM
  TGI: 6.36 µM
MOLT-4 leukemia
  GI50: 0.182 µM
  TGI: 1.99 µM
RXF 393 renal
  GI50: 0.246 µM
  TGI: 1.93 µM
OVCAR-3 ovarian
  GI50: 0.324 µM
  TGI: 1.42 µM
KM12 colon
  GI50: 0.705 µM
  TGI: 4.14 µM
UACC-62 melanoma
  GI50: 0.653 µM
  TGI: 2.17 µM
MALME-3M melanoma
  GI50: 0.898 µM
  TGI: 2.2 µM
HOP-92 NSCLC
  GI50: 0.971 µM
  TGI: 4.88 µM
UACC-257 melanoma
  GI50: 0.607 µM
  TGI: 1.98 µM
A549 NSCLC
  GI50: 0.13 µM
  TGI: 2.13 µM
MDA-MB-435
  GI50: 0.57 µM
  TGI: 2.72 µM
786-0 renal
  GI50: 0.712 µM
  TGI: 7.18 µM
SK-OV-3 ovarian
  GI50: 1.01 µM
  TGI: 4.66 µM
HCC-2998 colon
  GI50: 0.35 µM
  TGI: 1.98 µM
CAKI-1 renal
  GI50: 1.11 µM
  TGI: 5.77 µM
T-47D breast
  GI50: 0.791 µM
  TGI: 3.08 µM
HOP-62 NSCLC
  GI50: 0.444 µM
  TGI: 3.34 µM
CCRF-CEM leukemia
  GI50: 0.185 µM
  TGI: 4.13 µM
IGROV1 ovarian
  GI50: 0.272 µM
  TGI: 2.72 µM
